Experimental data: PubChem BioAssay (NCI)
Several values for one entry are separate records, joined by “and”; a condition that tells them apart may be missing. Identical values can stand only once.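 Cells were grown in 96-well plates and exposed to each compound for 48 hours at five concentrations; endpoints were interpolated linearly between bracketing concentrations, or set to the highest concentration if not reached. GI50 is the concentration that inhibits growth by half. TGI: concentration producing complete growth inhibition.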

How the values were obtained:
Assay in all cases: NCI-60 cell line screen, 48 h
HCT-116 colon = system: HCT-116 colon
HOP-62 NSCLC = system: HOP-62 NSCLC
SK-MEL-5 melanoma = system: SK-MEL-5 melanoma
SK-OV-3 ovarian = system: SK-OV-3 ovarian
SN12C renal = system: SN12C renal
U251 CNS = system: U251 CNS
UACC-257 melanoma = system: UACC-257 melanoma
UO-31 renal = system: UO-31 renal
LOX IMVI melanoma = system: LOX IMVI melanoma
HS 578T breast = system: HS 578T breast

SMILES | TGI (HCT-116 colon) | TGI (HOP-62 NSCLC) | TGI (SK-MEL-5 melanoma) | TGI (SK-OV-3 ovarian) | TGI (SN12C renal) | TGI (U251 CNS) | TGI (UACC-257 melanoma) | TGI (UO-31 renal) | TGI (LOX IMVI melanoma) | GI50 (HCT-116 colon) | GI50 (HOP-62 NSCLC) | GI50 (HS 578T breast) | TGI (HS 578T breast) | GI50 (SK-MEL-5 melanoma) | GI50 (SK-OV-3 ovarian) | GI50 (SN12C renal) | GI50 (U251 CNS) | GI50 (UACC-257 melanoma) | GI50 (UO-31 renal) | GI50 (LOX IMVI melanoma)
Cc1cc(NCCCCCCNc2cc(C)nc3cc(N(C)C)ccc23)c2ccc(N(C)C)cc2n1 | > 100 µM | > 100 µM | > 100 µM | 25 µM | > 100 µM | > 100 µM | > 100 µM | > 100 µM | – | – | – | – | – | – | – | – | – | – | – | –
Cc1cc2c(C)nn(Cc3ccccc3)c2c(C(N)=O)c1C | > 100 µM | > 100 µM | > 100 µM | > 100 µM | > 100 µM | > 100 µM | > 100 µM | > 100 µM | > 100 µM | – | – | – | – | – | – | – | – | – | – | –
CCN(CC)CCOc1ccc(CCc2cc(OC)c(OC)c(OC)c2)cc1 | > 100 µM | 81.4 µM | 29.7 µM | – | > 100 µM | > 100 µM | 69.9 µM | > 100 µM | 26.9 µM | – | – | – | – | – | – | – | – | – | – | –
O=C1NC2(CCCCCC2)C2CCCCCCC12O (configuration not stated) | > 100 µM | > 100 µM | > 100 µM | > 100 µM | > 100 µM | > 100 µM | > 100 µM | > 100 µM | > 100 µM | – | – | – | – | – | – | – | – | – | – | –
c1csc(-c2cn3nc(-c4c[nH]c5ccccc45)sc3n2)c1 | 70.6 µM | 39.9 µM | 15.1 µM | 82.7 µM | > 100 µM | 17 µM | 98.3 µM | > 100 µM | – | 0.627 µM | 1.58 µM | 2.65 µM | > 100 µM | 0.714 µM | 2.8 µM | 1.15 µM | 1.21 µM | 11.4 µM | 1.71 µM | –
Clc1ccc(N=Nc2nc3ccccc3nc2N=Nc2ccc(Cl)cc2Cl)c(Cl)c1 | > 100 µM | > 100 µM | – | – | > 100 µM | > 100 µM | > 100 µM | > 100 µM | > 100 µM | – | – | – | – | – | – | – | – | – | – | –
COc1cc([C@@H]2c3cc4c(cc3[C@@H](OC(=O)c3ccc(N)cc3)C3COC(=O)[C@@H]32)OCO4)cc(OC)c1O (some centres not stated) | > 95 µM | 26.9 µM | 16.7 µM | 20.7 µM | 40.1 µM | 28.7 µM | > 95 µM | 34.5 µM | 50.7 µM | – | – | – | – | – | – | – | – | – | – | –
O=C1c2cccc(NCCN=Cc3cc([N+](=O)[O-])ccc3O)c2C(=O)c2c(NCCN=Cc3cc([N+](=O)[O-])ccc3O)cccc21 | 81.5 µM | 59.8 µM | – | > 100 µM | > 100 µM | 19.7 µM | > 100 µM | > 100 µM | 29.1 µM | 1.28 µM | 3.37 µM | 2.74 µM | 29.4 µM | – | 18.9 µM | 2.45 µM | 2.65 µM | > 100 µM | 8.34 µM | 2.62 µM
N.N.N.N.N.[Cl-].[Co+3].c1ccc(-c2nn[n-]n2)cc1 | > 100 µM | > 100 µM | > 100 µM | > 100 µM | > 100 µM | > 100 µM | > 100 µM | > 100 µM | > 100 µM | > 100 µM | > 100 µM | – | – | > 100 µM | > 100 µM | > 100 µM | > 100 µM | > 100 µM | > 100 µM | > 100 µM
CCC(C)[C@H]1O[C@]2(C=C[C@@H]1C)C[C@@H]1C[C@@H](C/C=C(\C)[C@@H](OC3C[C@H](OC)C(O[C@H]4C[C@H](OC)[C@@H](O)[C@H](C)O4)[C@H](C)O3)[C@@H](C)/C=C/C=C3\CO[C@@H]4[C@H](O)C(C)=C[C@@H](C(=O)O1)[C@]34O)O2 (some centres not stated) | 1.53 µM | 6.53 µM | 2.28 µM | 8.23 µM | 6.95 µM | 6.47 µM | 5.74 µM | 1.73 µM | – | 0.752 µM | 1.37 µM | 1.02 µM | 2.87 µM | 0.991 µM | 2.17 µM | 1.65 µM | 1.42 µM | 1.56 µM | 0.807 µM | –
c1ccc(CN2CCC3(CC2)SSC2(CCN(Cc4ccccc4)CC2)S3)cc1 | > 100 µM | > 100 µM | – | > 100 µM | > 100 µM | > 100 µM | > 100 µM | > 100 µM | > 100 µM | – | – | – | > 100 µM | – | – | – | – | – | – | –
O=C(Nc1ccncc1)C(=O)c1cn(Cc2ccc(Cl)cc2)c2ccccc12 | > 100 µM | > 100 µM | > 35 µM | > 100 µM | > 100 µM | > 100 µM | – | > 100 µM | > 100 µM | 0.048 µM | 0.0597 µM | 0.0339 µM | > 100 µM | 0.0309 µM | 0.199 µM | 0.0725 µM | 0.0472 µM | – | 0.0788 µM | 0.0574 µM
c1ccc(C(c2ccccc2)c2cccnc2)cc1 | > 100 µM | > 100 µM | > 100 µM | > 100 µM | > 100 µM | > 100 µM | > 100 µM | > 100 µM | > 100 µM | – | – | – | – | – | – | – | – | – | – | –
O=C(NC(=O)c1cn(CCN(CCO)C(=O)NCCCCCCNC(=O)N(CCO)CCn2cc(C(=O)NC(=O)OCc3ccccc3)c(=O)[nH]c2=O)c(=O)[nH]c1=O)OCc1ccccc1 | > 100 µM | > 100 µM | > 100 µM | > 100 µM | > 100 µM | > 100 µM | > 100 µM | > 100 µM | > 100 µM | – | – | – | – | – | – | – | – | – | – | –
CC1CC2OC(=O)C(C)C2CC2(C)C(OC3OC(CO)C(O)C(O)C3O)OCCC12 (configuration not stated) | > 100 µM | > 100 µM | > 100 µM | > 100 µM | > 100 µM | > 100 µM | > 100 µM | – | > 100 µM | – | – | – | > 100 µM | – | – | – | – | – | – | –
C[C@]12CCC(=O)C=C1CC[C@@H]1C2CC[C@]2(C)Nc3c(cnn3-c3ccccc3)CC12 (some centres not stated) | > 100 µM | > 100 µM | > 100 µM | > 100 µM | – | > 100 µM | > 100 µM | > 100 µM | – | – | – | – | – | – | – | – | – | – | – | –
COC1/C=C/C(C)C(C(C)C(OC)C(C)CCC(=O)C(C)C(C/C=C/N(C)C=O)OC)OC(=O)/C=C/C=C(\C)CC(OC)CC2=CC(=O)O[C@H](C2)C(C)C(OC)CC(OC)/C=C/C(C)C(OC)C1 (some centres not stated) | 0.115 µM and 0.0148 µM | 0.0449 µM and 0.0169 µM | – | 0.229 µM and 0.0297 µM | 47.5 µM | 0.0289 µM | 0.0257 µM | 0.0943 µM and 0.0265 µM | – | 0.0066 µM | 0.0178 µM | 0.0297 µM | 0.071 µM and 0.0601 µM | 0.113 µM | 0.0382 µM | 0.143 µM | 0.0122 µM | – | 0.0294 µM | –
O=c1c2ccccc2c(=O)n2n1CC=CC2 | > 100 µM | – | > 100 µM | > 100 µM | > 100 µM | > 100 µM | > 100 µM | > 100 µM | > 100 µM | – | – | – | – | – | – | – | – | – | – | –
